Measurements reported in patent publication US20130281397A1, “TREATMENT OF DISEASES BY EPIGENETIC REGULATION” (RVX Therapeutics Inc., priority 2012, published 2013).
Where a name gives a salt, the structure may show the parent alone.

Biological target: T1, Brd4 bromodomain 1 (Homo sapiens, UniProt O60885)
T1 construct: made in house; host or cells: E. coli BL21(DE3)
Experiment: Inhibition of binding of tetra-acetylated histone H4 and Brd4 bromodomain 1 by TR-FRET
Conditions: His-tagged bromodomain 200 nM, biotinylated tetra-acetylated histone H4 peptide 25-50 nM, 2 hours at room temperature
Procedure: Proteins were cloned and overexpressed with a N-terminal 6×His tag, then purified by nickel affinity followed by size exclusion chromatography. Briefly, E. coli BL21(DE3) cells were transformed with a recombinant expression vector encoding N-terminally […] tagged bromodomains from Brd2, Brd3, or Brd4. Cell cultures were incubated at 37° C. with shaking to the appropriate density and induced overnight with IPTG. The supernatant of lysed cells was loaded onto Ni-IDA column for purification. Eluted protein was pooled, concentrated and further purified by size exclusion chromatography. Fractions representing monomeric protein were pooled, concentrated, aliquoted, and frozen at −80° C. for use in subsequent experiments.
For inhibition assays, serially diluted test compound was added to these reactions in a 0.2% final concentration of DMSO. Final buffer concentrations were 30 mM HEPES pH 7.4, 30 mM NaCl, 0.3 mM CHAPS, 20 mM phosphate pH 7.0, 320 mM KF, 0.08% BSA). […] The binding inhibitory activity was shown by a decrease in 665 nm fluorescence relative to 620 nm. IC50 values were determined from a dose response curve.

Structure (SMILES)	FRET activity (<50 uM)
CCCNC(=O)OCCOc1c(C)cc(-c2nc3cc(OC)cc(OC)c3c(=O)[nH]2)cc1C [Example 99, 2-(4-(5,7-Dimethoxy-4-oxo-3,4-dihydroquinazolin-2-yl)-2,6-dimethyl-phenoxy)ethyl propylcarbamate]	Active
CNC(=O)OCCOc1c(C)cc(-c2nc3cc(OC)cc(OC)c3c(=O)[nH]2)cc1C [Example 100, 2-(4-(5,7-Dimethoxy-4-oxo-3,4-dihydroquinazolin-2-yl)-2,6-dimethyl-phenoxy)ethyl methylcarbamate]	Active
COc1cc(OC)c2c(=O)[nH]c(-c3cc(C)c(OCCOC(=O)NC4CCCCC4)c(C)c3)nc2c1 [Example 102, 2-(4-(5,7-dimethoxy-4-oxo-3,4-dihydroquinazolin-2-yl)-2,6-dimethylphenoxy)ethyl cyclohexylcarbamate]	Active
COc1cc(OC)c2c(=O)[nH]c(-c3cc(C)c(OCCNS(=O)(=O)c4ccccc4)c(C)c3)nc2c1 [Example 103, N-(2-(4-(5,7-dimethoxy-4-oxo-3,4-dihydroquinazolin-2-yl)-2,6-dimethylphenoxy)ethyl)benzenesulfonamide]	Inactive
COc1cc(OC)c2c(=O)[nH]c(-c3cc(C)c(OCCNC(=O)C(C)C)c(C)c3)nc2c1 [Example 108, N-(2-(4-(5,7-dimethoxy-4-oxo-3,4-dihydroquinazolin-2-yl)-2,6-dimethylphenoxy)ethyl)isobutyramide]	Active
COc1ccc(NC(=O)NCCOc2c(C)cc(-c3nc4cc(OC)cc(OC)c4c(=O)[nH]3)cc2C)cc1 [Example 110, 1-(2-(4-(5,7-dimethoxy-4-oxo-3,4-dihydroquinazolin-2-yl)-2,6-dimethylphenoxy)ethyl)-3-(4-methoxyphenyl)urea]	Inactive
COc1cc(OC)c2c(=O)[nH]c(-c3cc(C)c(OCCNC(=O)Nc4ccccc4)c(C)c3)nc2c1 [Example 111, 1-(2-(4-(5,7-dimethoxy-4-oxo-3,4-dihydroquinazolin-2-yl)-2,6-dimethylphenoxy)ethyl)-3-phenylurea]	Active
COc1cc(OC)c2c(=O)[nH]c(-c3cc(C)c(OCCNC(=O)N(C)C)c(C)c3)nc2c1 [Example 112, 3-(2-(4-(5,7-dimethoxy-4-oxo-3,4-dihydroquinazolin-2-yl)-2,6-dimethylphenoxy)ethyl)-1,1-dimethylurea]	Active

Next, values leading:

FRET activity (<50 uM)	Structure (SMILES)
Active	COc1cc(OC)c2c(=O)[nH]c(-c3cc(C)c(OCCNC(=O)c4ccc(C)cc4)c(C)c3)nc2c1 [Example 101, N-(2-(4-(5,7-Dimethoxy-4-oxo-3,4-dihydroquinazolin-2-yl)-2,6-dimethylphenoxy)ethyl)-4-methylbenzamide]
Inactive	COc1cc(OC)c2c(=O)[nH]c(-c3cc(C)c(OCCNS(=O)(=O)c4ccc(C)cc4)c(C)c3)nc2c1 [Example 104, N-(2-(4-(5,7-dimethoxy-4-oxo-3,4-dihydroquinazolin-2-yl)-2,6-dimethylphenoxy)ethyl)-4-methylbenzenesulfonamide]
Inactive	COc1ccc(C(=O)NCCOc2c(C)cc(-c3nc4cc(OC)cc(OC)c4c(=O)[nH]3)cc2C)cc1 [Example 105, N-(2-(4-(5,7-dimethoxy-4-oxo-3,4-dihydroquinazolin-2-yl)-2,6-dimethylphenoxy)ethyl)-4-methoxybenzamide]
Active	COc1cc(OC)c2c(=O)[nH]c(-c3cc(C)c(OCCNC(C)=O)c(C)c3)nc2c1 [Example 106, N-(2-(4-(5,7-dimethoxy-4-oxo-3,4-dihydroquinazolin-2-yl)-2,6-dimethylphenoxy)ethyl)acetamide]
Active	COc1cc(OC)c2c(=O)[nH]c(-c3cc(C)c(OCCNC(=O)c4ccccc4)c(C)c3)nc2c1 [Example 107, N-(2-(4-(5,7-dimethoxy-4-oxo-3,4-dihydroquinazolin-2-yl)-2,6-dimethylphenoxy)ethyl)benzamide]
Active	CNC(=O)NCCOc1c(C)cc(-c2nc3cc(OC)cc(OC)c3c(=O)[nH]2)cc1C [Example 109, 1-(2-(4-(5,7-dimethoxy-4-oxo-3,4-dihydroquinazolin-2-yl)-2,6-dimethylphenoxy)ethyl)-3-methylurea]

Test system: not given
Experiment: not given
Conditions: not given

Structure (SMILES)	melting point
Cc1cc(-c2cc3ncccc3c(=O)[nH]2)cc(C)c1O (as salt: HCl) [Example 5, 7-(4-hydroxy-3,5-dimethylphenyl)-1,6-naphthyridin-5(6H)-one]	> 350 °C
COc1cc(OC)c2c(=O)[nH]c(-c3cc(C)c(O)c(C)c3)cc2n1 (as salt: HCl) [Example 13, 7-(4-hydroxy-3,5-dimethylphenyl)-2,4-dimethoxy-1,6-naphthyridin-5(6H)-one]	> 324 °C
COc1cc(OC)c2c(=O)[nH]c(-c3cc(C)c(OCCN(C)C)c(C)c3)cc2c1 (as salt: hydrochloride) [Example 7, 3-(4-(2-(dimethylamino)ethoxy)-3,5-dimethylphenyl)-6,8-dimethoxyisoquinolin-1(2H)-one]	261 to 263 °C
Cc1cc(-c2cc3ccc(CN4CCOCC4)cc3c(=O)[nH]2)cc(C)c1O (as salt: hydrochloride) [Example 8, 3-(4-hydroxy-3,5-dimethylphenyl)-7-(morpholinomethyl)isoquinolin-1(2H)-one]	281 to 283 °C
COc1cc(O)nc2cc(-c3cc(C)c(O)c(C)c3)[nH]c(=O)c12 (as salt: hydrochloride) [Example 9, 2-hydroxy-7-(4-hydroxy-3,5-dimethylphenyl)-4-methoxy-1,6-naphthyridin-5(6H)-one]	> 330 °C
Cc1cc(-c2nc3ccccc3c(=O)[nH]2)cc(C)c1OCCN1CCOCC1 (as salt: hydrochloride) [Example 29, 2-(3,5-dimethyl-4-(2-morpholinoethoxy)phenyl)quinazolin-4(3H)-one]	300 to 302 °C
Cc1cc(-c2nc3ccc(CN4CCOCC4)cc3c(=O)[nH]2)cc(C)c1O (as salt: hydrochloride) [Example 57, 2-(4-hydroxy-3,5-dimethylphenyl)-6-(morpholinomethyl)quinazolin-4(3H)-one]	284 to 286 °C
COc1cc2cc(-c3cc(C)c(O)c(C)c3)n(C)c(=O)c2c(OC)c1C [Example 14 (left), 3-(4-hydroxy-3,5-dimethylphenyl)-6,8-dimethoxy-2,7-dimethylisoquinolin-1(2H)-one]	246 to 248 °C
COc1cc2nc(-c3ccc(N(C)C)c4ccccc34)[nH]c(=O)c2cc1OC [Example 39]	235.5 to 236.5 °C

More lines, now with the values ahead:

melting point	Structure (SMILES)
185 to 187 °C	COc1cc(OC)c2c(=O)[nH]c(-c3cc(C)c(OCCN4CCOCC4)c(C)c3)nc2c1 (as salt: hydrochloride) [Example 17, 2-(3,5-dimethyl-4-(2-morpholinoethoxy)phenyl)-5,7-dimethoxyquinazolin-4(3H)-one]
195 to 198 °C	COc1cc(OC)c2c(=O)[nH]c(-c3cc(C)c(OCCN4CCN(C)CC4)c(C)c3)cc2c1 (as salt: hydrochloride) [Example 18, 3-(3,5-dimethyl-4-(2-(4-methylpiperazin-1-yl)ethoxy)phenyl)-6,8-dimethoxyisoquinolin-1(2H)-one]
215 to 217 °C	COc1cc(OC)c2c(=O)[nH]c(-c3ccccn3)nc2c1 (as salt: hydrochloride) [Example 21, 5,7-dimethoxy-2-(pyridin-2-yl)quinazolin-4(3H)-one]
257 to 259 °C	COc1cc(OC)c2c(=O)[nH]c(-c3cccnc3)nc2c1 (as salt: hydrochloride) [Example 22, 5,7-dimethoxy-2-(pyridin-3-yl)quinazolin-4(3H)-one]
294 to 295 °C	COc1cc(OC)c2c(=O)[nH]c(-c3ccncc3)nc2c1 (as salt: hydrochloride) [Example 28, 5,7-dimethoxy-2-(pyridin-4-yl)quinazolin-4(3H)-one]
275 to 277 °C	COc1cc(OC)c2c(=O)[nH]c(-c3ccc(CN4CCN(C)CC4)cc3)nc2c1 (as salt: hydrochloride) [Example 54, 5,7-dimethoxy-2-(4-((4-methylpiperazin-1-yl)methyl)phenyl)quinazolin-4(3H)-one]
206 to 208 °C (dec.)	COc1cc(OC)c2c(=O)[nH]c(-c3ccc(CN4CCOCC4)cc3)nc2c1 (as salt: hydrochloride) [Example 61, 5,7-dimethoxy-2-(4-(morpholinomethyl)phenyl)quinazolin-4(3H)-one]
278 to 280 °C (dec.)	CCN1CCN(Cc2ccc(-c3nc4cc(OC)cc(OC)c4c(=O)[nH]3)cc2)CC1 (as salt: hydrochloride) [Example 62, 2-(4-((4-ethylpiperazin-1-yl)methyl)phenyl)-5,7-dimethoxyquinazolin-4(3H)-one]
268 to 270 °C	COc1cc2nc(-c3ccc(N(CCO)CCO)cc3)[nH]c(=O)c2cc1OC [Example 42, 2-(4-(bis(2-hydroxyethyl)amino)phenyl)-6,7-dimethoxyquinazolin-4(3H)-one]
246 to 248 °C	COc1cc(OC)c2c(=O)[nH]c(-c3ccc(OCCO)c(OC)c3)nc2c1 [Example 52, 2-(4-(2-hydroxyethoxy)-3-methoxyphenyl)-5,7-dimethoxyquinazolin-4(3H)-one]
